# From publication PMC5218480 (PLoS ONE, 2017)
# System: MV-4-11 cells
# Test: Gene expression microarray analysis (Affymetrix PrimeView) and GSEA
# Format: cell-based, human
# Design: RFU PODN (11730768_x_at) / Fold change /veh PODN (11730768_x_at) / RFU LINC00158 (11744669_a_at) / Fold change /veh LINC00158 (11744669_a_at) / RFU DUSP10 (11751237_a_at) / Fold change /veh DUSP10 (11751237_a_at) / RFU ID3 (11757404_x_at) / Fold change /veh ID3 (11757404_x_at) / RFU PLEKHG5 (11737974_s_at) / Fold change /veh PLEKHG5 (11737974_s_at) / RFU LRRC4B (11730491_at) / Fold change /veh LRRC4B (11730491_at) / RFU GIMAP4 (11747438_a_at) / Fold change /veh GIMAP4 (11747438_a_at) / RFU KRT8 (11758183_x_at) / Fold change /veh KRT8 (11758183_x_at) / RFU CNN1 (11734310_a_at) / Fold change /veh CNN1 (11734310_a_at) / RFU VPS37D (11726825_at) / Fold change /veh VPS37D (11726825_at) / RFU C10orf10 (11716522_x_at) / Fold change /veh C10orf10 (11716522_x_at) / RFU KIR2DL2 /// KIR2DL4 /// KIR2DL5A /// KIR2DL5B /// KIR2DS1 /// KIR2DS2 /// KIR2DS3 /// KIR2DS4 /// KIR3DL3 /// KIR3DL3 /// KIR3DS1 (11738374_at) / Fold change /veh KIR2DL2 /// KIR2DL4 /// KIR2DL5A /// KIR2DL5B /// KIR2DS1 /// KIR2DS2 /// KIR2DS3 /// KIR2DS4 /// KIR3DL3 /// KIR3DL3 /// KIR3DS1 (11738374_at) / RFU C1QL1 (11718748_at) / Fold change /veh C1QL1 (11718748_at) / RFU TMPRSS4 (11747572_a_at) / Fold change /veh TMPRSS4 (11747572_a_at) / RFU HAMP (11756126_x_at) / Fold change /veh HAMP (11756126_x_at) / RFU RNFT2 (11725882_a_at) / Fold change /veh RNFT2 (11725882_a_at) / RFU NR4A2 (11747474_a_at) / Fold change /veh NR4A2 (11747474_a_at) / RFU ABCC12 (11746883_a_at) / Fold change /veh ABCC12 (11746883_a_at) / RFU TMEM136 (11760407_x_at) / Fold change /veh TMEM136 (11760407_x_at) / RFU CLDN22 /// WWC2 (11732394_at) / Fold change /veh CLDN22 /// WWC2 (11732394_at) / RFU HLA-DPB1 (11760878_x_at) / Fold change /veh HLA-DPB1 (11760878_x_at) / RFU SPINT1 (11716480_a_at) / Fold change /veh SPINT1 (11716480_a_at) / RFU GAP43 (11754022_s_at) / Fold change /veh GAP43 (11754022_s_at) / RFU A4GNT (11735810_at) / Fold change /veh A4GNT (11735810_at) / RFU PRB3 (11715151_x_at) / Fold change /veh PRB3 (11715151_x_at) / RFU TUBB4B (11761932_at) / Fold change /veh TUBB4B (11761932_at) / RFU CAPN14 (11732068_a_at) / Fold change /veh CAPN14 (11732068_a_at) / RFU TMCC2 (11721928_a_at) / Fold change /veh TMCC2 (11721928_a_at) / RFU IRGQ (11745062_a_at) / Fold change /veh IRGQ (11745062_a_at) / RFU FAM174B (11720279_a_at) / Fold change /veh FAM174B (11720279_a_at) / RFU TMPRSS4 (11748680_a_at) / Fold change /veh TMPRSS4 (11748680_a_at) / RFU FAM212B (11763350_a_at) / Fold change /veh FAM212B (11763350_a_at) / RFU PLEKHG5 (11743358_a_at) / Fold change /veh PLEKHG5 (11743358_a_at) / RFU ZSCAN30 (11745921_a_at) / Fold change /veh ZSCAN30 (11745921_a_at) / RFU CMKLR1 (11741424_a_at) / Fold change /veh CMKLR1 (11741424_a_at) / RFU LOC101060620 /// MAPK8IP1 (11723275_at) / Fold change /veh LOC101060620 /// MAPK8IP1 (11723275_at) / RFU SPTSSB (11747773_x_at) / Fold change /veh SPTSSB (11747773_x_at) / RFU PRSS12 (11739890_at) / Fold change /veh PRSS12 (11739890_at) / RFU BIN1 (11741810_x_at) / Fold change /veh BIN1 (11741810_x_at) / RFU WNT11 (11732464_a_at) / Fold change /veh WNT11 (11732464_a_at) / RFU C10orf10 (11716521_a_at) / Fold change /veh C10orf10 (11716521_a_at) / RFU C5orf56 (11738089_at) / Fold change /veh C5orf56 (11738089_at) / RFU CYB561 (11721691_x_at) / Fold change /veh CYB561 (11721691_x_at) / RFU ANKRD19P (11752326_a_at) / Fold change /veh ANKRD19P (11752326_a_at) / RFU OR2T12 /// OR2T33 /// OR2T8 (11738714_s_at) / Fold change /veh OR2T12 /// OR2T33 /// OR2T8 (11738714_s_at) / RFU VCAN (11748164_a_at) / Fold change /veh VCAN (11748164_a_at) / RFU JSRP1 (11732532_at) / Fold change /veh JSRP1 (11732532_at) / RFU KRTAP10-11 (11738290_x_at) / Fold change /veh KRTAP10-11 (11738290_x_at) / RFU MYO3A (11730013_a_at) / Fold change /veh MYO3A (11730013_a_at) / RFU EBF3 (11725865_a_at) / Fold change /veh EBF3 (11725865_a_at) / RFU CAMK2N1 (11719241_x_at) / Fold change /veh CAMK2N1 (11719241_x_at) / RFU C5orf56 (11738088_a_at) / Fold change /veh C5orf56 (11738088_a_at) / RFU OLFML3 (11715873_a_at) / Fold change /veh OLFML3 (11715873_a_at) / RFU LOC100653217 /// NTM (11731650_a_at) / Fold change /veh LOC100653217 /// NTM (11731650_a_at) / RFU MAPK11 (11762145_a_at) / Fold change /veh MAPK11 (11762145_a_at) / RFU FIZ1 (11724087_x_at) / Fold change /veh FIZ1 (11724087_x_at) / RFU OASL (11726364_x_at) / Fold change /veh OASL (11726364_x_at) / RFU SOX15 (11748057_x_at) / Fold change /veh SOX15 (11748057_x_at) / RFU CD79A (11719716_a_at) / Fold change /veh CD79A (11719716_a_at) / RFU HIST1H1D (11736915_at) / Fold change /veh HIST1H1D (11736915_at) / RFU CASKIN2 (11723855_a_at) / Fold change /veh CASKIN2 (11723855_a_at) / RFU LOC730098 (11760151_x_at) / Fold change /veh LOC730098 (11760151_x_at) / RFU OR4N2 (11742367_at) / Fold change /veh OR4N2 (11742367_at) / RFU PRRT2 (11749266_a_at) / Fold change /veh PRRT2 (11749266_a_at) / RFU SNX32 (11753110_a_at) / Fold change /veh SNX32 (11753110_a_at) / RFU CDHR5 (11726645_a_at) / Fold change /veh CDHR5 (11726645_a_at) / RFU RCAN1 (11760418_a_at) / Fold change /veh RCAN1 (11760418_a_at) / RFU FAM167A (11723789_a_at) / Fold change /veh FAM167A (11723789_a_at) / RFU FAM26E (11764081_at) / Fold change /veh FAM26E (11764081_at) / RFU ISYNA1 (11749810_s_at) / Fold change /veh ISYNA1 (11749810_s_at) / RFU ACY1 (11761880_at) / Fold change /veh ACY1 (11761880_at) / RFU 11764098_at / Fold change /veh 11764098_at / RFU SAMD14 (11745864_x_at) / Fold change /veh SAMD14 (11745864_x_at) / RFU NPB (11741838_a_at) / Fold change /veh NPB (11741838_a_at) / RFU TMPRSS6 (11731388_a_at) / Fold change /veh TMPRSS6 (11731388_a_at) / RFU KRTAP10-2 (11738614_at) / Fold change /veh KRTAP10-2 (11738614_at) / RFU ARHGAP8 /// PRR5-ARHGAP8 (11727945_x_at) / Fold change /veh ARHGAP8 /// PRR5-ARHGAP8 (11727945_x_at) / RFU KRTAP5-7 /// NADSYN1 (11734609_at) / Fold change /veh KRTAP5-7 /// NADSYN1 (11734609_at) / RFU RASL12 (11751679_a_at) / Fold change /veh RASL12 (11751679_a_at) / RFU CDKN2B (11736163_a_at) / Fold change /veh CDKN2B (11736163_a_at) / RFU PRF1 (11729649_at) / Fold change /veh PRF1 (11729649_at) / RFU, ZNF638 /// ZNF638-IT1 / Fold change vs veh, ZNF638 /// ZNF638-IT1 / RFU, PANK3 / Fold change vs veh, PANK3 / RFU, SH3YL1 / Fold change vs veh, SH3YL1 / RFU, ZEB2 / Fold change vs veh, ZEB2 / RFU, NRIP1 / Fold change vs veh, NRIP1 / RFU, PTTG1IP / Fold change vs veh, PTTG1IP / RFU, CAPN2 / Fold change vs veh, CAPN2 / RFU, MED14 / Fold change vs veh, MED14 / RFU, SNORA58 / Fold change vs veh, SNORA58 / RFU, C1orf63 / Fold change vs veh, C1orf63 / RFU, LRRFIP1 / Fold change vs veh, LRRFIP1 / RFU, NDUFAF7 / Fold change vs veh, NDUFAF7 / RFU, SLC12A2 / Fold change vs veh, SLC12A2 / RFU, IBTK / Fold change vs veh, IBTK / RFU, ESF1 / Fold change vs veh, ESF1 / Fold change vs veh, TMEM50B / RFU, TAOK1 / Fold change vs veh, TAOK1 / RFU, ACBD3 / Fold change vs veh, ACBD3 / RFU, TMA16 / Fold change vs veh, TMA16 / RFU, RWDD3 / Fold change vs veh, RWDD3 / RFU, BCAT1 / Fold change vs veh, BCAT1 / RFU, EDEM3 / Fold change vs veh, EDEM3 / RFU, TMEM33 / Fold change vs veh, TMEM33 / RFU, WDR75 / Fold change vs veh, WDR75 / RFU, AHCTF1 / Fold change vs veh, AHCTF1 / RFU, TFRC / Fold change vs veh, TFRC / RFU, ZDHHC17 / Fold change vs veh, ZDHHC17 / RFU, NOM1 / Fold change vs veh, NOM1 / RFU, ARL8B / Fold change vs veh, ARL8B / RFU, ZBTB11 / Fold change vs veh, ZBTB11 / RFU, TAMM41 / Fold change vs veh, TAMM41 / RFU, KIAA1704 /// LOC100996395 / Fold change vs veh, KIAA1704 /// LOC100996395 / RFU, ING1 / Fold change vs veh, ING1 / RFU, TRMT61B / Fold change vs veh, TRMT61B / RFU, FUBP3 / Fold change vs veh, FUBP3 / RFU, TP53 / Fold change vs veh, TP53 / RFU, TNKS2 / Fold change vs veh, TNKS2 / RFU, ZFP14 / Fold change vs veh, ZFP14 / RFU, ACTR2 / Fold change vs veh, ACTR2 / RFU, PPP3R1 / Fold change vs veh, PPP3R1 / RFU, PIK3R1 / Fold change vs veh, PIK3R1 / RFU, HNRNPA1 / Fold change vs veh, HNRNPA1 / RFU, RNF170 / Fold change vs veh, RNF170 / RFU, ZNF28 / Fold change vs veh, ZNF28 / RFU, RNGTT / Fold change vs veh, RNGTT / RFU, OGT / Fold change vs veh, OGT / RFU, BRD1 / Fold change vs veh, BRD1 / RFU, MARS / Fold change vs veh, MARS / RFU, ZNF655 / Fold change vs veh, ZNF655 / RFU, FAHD1 / Fold change vs veh, FAHD1 / RFU, BDP1 / Fold change vs veh, BDP1 / RFU, LRRCC1 / Fold change vs veh, LRRCC1 / RFU, ARID1A / Fold change vs veh, ARID1A / RFU, ZNF146 / Fold change vs veh, ZNF146 / RFU, ZNF330 / Fold change vs veh, ZNF330 / RFU, GPN3 / Fold change vs veh, GPN3 / RFU, C9orf123 / Fold change vs veh, C9orf123 / RFU, N4BP2L2 / Fold change vs veh, N4BP2L2 / RFU, ARFIP1 / Fold change vs veh, ARFIP1 / RFU, FAM179B / Fold change vs veh, FAM179B / RFU, BCL10 / Fold change vs veh, BCL10 / RFU, UHRF1BP1L / Fold change vs veh, UHRF1BP1L / RFU, BET1 / Fold change vs veh, BET1 / RFU, CNOT2 / Fold change vs veh, CNOT2 / RFU, ZNF268 / Fold change vs veh, ZNF268 / Fold change vs veh, ZNF507 / RFU, DGCR2 / Fold change vs veh, DGCR2 / RFU, WDSUB1 / Fold change vs veh, WDSUB1 / Fold change vs veh, HSP90B1 /// MIR3652 / RFU, ADSS / Fold change vs veh, ADSS / RFU, GK / Fold change vs veh, GK / RFU, ZNF148 / Fold change vs veh, ZNF148 / RFU, TAF9 / Fold change vs veh, TAF9 / RFU, SLC1A5 / Fold change vs veh, SLC1A5 / RFU, SLMO2 / Fold change vs veh, SLMO2 / RFU, ABCC4 / Fold change vs veh, ABCC4 / RFU, LOC101060439 /// RAP1B / Fold change vs veh, LOC101060439 /// RAP1B / RFU, RFX7 / Fold change vs veh, RFX7 / RFU, GTPBP10 / Fold change vs veh, GTPBP10 / RFU, CNEP1R1 / Fold change vs veh, CNEP1R1 / RFU, BIVM-ERCC5 /// ERCC5 / Fold change vs veh, BIVM-ERCC5 /// ERCC5 / RFU, ILF3 / Fold change vs veh, ILF3 / RFU 11762660_at / Fold change /veh 11762660_at / RFU VCAN (11757783_s_at) / Fold change /veh VCAN (11757783_s_at) / RFU DDX43 (11728927_at) / Fold change /veh DDX43 (11728927_at) / RFU KRT8 (11758188_x_at) / Fold change /veh KRT8 (11758188_x_at) / RFU NKD1 (11759106_at) / Fold change /veh NKD1 (11759106_at) / RFU SRD5A1 (11742802_a_at) / Fold change /veh SRD5A1 (11742802_a_at) / RFU TPSAB1 /// TPSB2 (11721975_s_at) / Fold change /veh TPSAB1 /// TPSB2 (11721975_s_at) / RFU GSTM3 (11746129_a_at) / Fold change /veh GSTM3 (11746129_a_at) / RFU IL23R (11737362_x_at) / Fold change /veh IL23R (11737362_x_at) / RFU TMEM51 (11727254_a_at) / Fold change /veh TMEM51 (11727254_a_at) / RFU PIWIL2 (11732686_x_at) / Fold change /veh PIWIL2 (11732686_x_at) / RFU ORM1 (11744905_x_at) / Fold change /veh ORM1 (11744905_x_at) / RFU CCDC152 (11743942_at) / Fold change /veh CCDC152 (11743942_at) / RFU ECM1 (11717891_a_at) / Fold change /veh ECM1 (11717891_a_at) / RFU IL23R (11748794_a_at) / Fold change /veh IL23R (11748794_a_at) / RFU TNFAIP8L3 (11732012_x_at) / Fold change /veh TNFAIP8L3 (11732012_x_at) / RFU MBOAT4 (11741988_at) / Fold change /veh MBOAT4 (11741988_at) / RFU 11764193_at / Fold change /veh 11764193_at / RFU TMEM53 (11763286_at) / Fold change /veh TMEM53 (11763286_at) / RFU MAGEB2 (11727129_at) / Fold change /veh MAGEB2 (11727129_at) / RFU TMEM200A (11744735_a_at) / Fold change /veh TMEM200A (11744735_a_at) / RFU CCDC152 (11751479_a_at) / Fold change /veh CCDC152 (11751479_a_at) / RFU FAM211A (11726209_a_at) / Fold change /veh FAM211A (11726209_a_at) / RFU RGS16 (11746705_a_at) / Fold change /veh RGS16 (11746705_a_at) / RFU VCAN (11755009_s_at) / Fold change /veh VCAN (11755009_s_at) / RFU RHOB (11743442_s_at) / Fold change /veh RHOB (11743442_s_at) / RFU RGS16 (11720943_a_at) / Fold change /veh RGS16 (11720943_a_at) / RFU RGS16 (11720944_at) / Fold change /veh RGS16 (11720944_at) / RFU, VPS4B / Fold change vs veh, VPS4B / RFU, CREB1 / Fold change vs veh, CREB1 / RFU, DNAJC13 / Fold change vs veh, DNAJC13 / RFU, GNAQ / Fold change vs veh, GNAQ / RFU, CDK5R1 / Fold change vs veh, CDK5R1 / RFU, ZRANB3 / Fold change vs veh, ZRANB3 / RFU, CUL4A / Fold change vs veh, CUL4A / RFU, CCNY / Fold change vs veh, CCNY / RFU, UFL1 / Fold change vs veh, UFL1 / RFU, COG3 / Fold change vs veh, COG3 / RFU, DIAPH2 / Fold change vs veh, DIAPH2 / RFU, SKA2 / Fold change vs veh, SKA2 / RFU, AFF3 / Fold change vs veh, AFF3 / RFU, LMF1 / Fold change vs veh, LMF1 / RFU, IPO11 / Fold change vs veh, IPO11 / RFU, DFFB / Fold change vs veh, DFFB / RFU, FOXP1 / Fold change vs veh, FOXP1 / RFU, CARD8 / Fold change vs veh, CARD8 / RFU, STRN3 / Fold change vs veh, STRN3 / RFU, ADK / Fold change vs veh, ADK / RFU, RASSF2 / Fold change vs veh, RASSF2 / RFU, WIPF1 / Fold change vs veh, WIPF1 / RFU, LARP1B / Fold change vs veh, LARP1B / RFU, RASA1 / Fold change vs veh, RASA1 / RFU, RB1 / Fold change vs veh, RB1 / RFU, PPFIA1 / Fold change vs veh, PPFIA1 / RFU, MAT2A / Fold change vs veh, MAT2A / RFU, CCT5 / Fold change vs veh, CCT5 / RFU, WDR92 / Fold change vs veh, WDR92 / RFU, CUX1 / Fold change vs veh, CUX1 / RFU, TTC7A / Fold change vs veh, TTC7A / RFU, TMEM135 / Fold change vs veh, TMEM135 / RFU, DEPTOR / Fold change vs veh, DEPTOR / RFU, CPM / Fold change vs veh, CPM / RFU, DNAJB6 / Fold change vs veh, DNAJB6 / RFU, CACNA2D3 / Fold change vs veh, CACNA2D3 / RFU, DTX4 / Fold change vs veh, DTX4 / RFU, TFCP2 / Fold change vs veh, TFCP2 / RFU, GMCL1 /// GMCL1P1 / Fold change vs veh, GMCL1 /// GMCL1P1 / RFU, AEBP2 / Fold change vs veh, AEBP2 / RFU, SNHG1 /// SNORD22 /// SNORD25 /// SNORD26 /// SNORD27 /// SNORD28 /// SNORD29 /// SNORD31 / Fold change vs veh, SNHG1 /// SNORD22 /// SNORD25 /// SNORD26 /// SNORD27 /// SNORD28 /// SNORD29 /// SNORD31 / Fold change (Aza/veh), C12orf56 (ProbeSet 11735607_a_at) / Fold change (ACY-1035/veh), C12orf56 (ProbeSet 11735607_a_at) / Fold change (Aza/veh), FGFR1OP (ProbeSet 11751329_s_at) / Fold change (ACY-1035/veh), FGFR1OP (ProbeSet 11751329_s_at) / Fold change (Aza/veh), VPS36 (ProbeSet 11739960_a_at) / Fold change (ACY-1035/veh), VPS36 (ProbeSet 11739960_a_at) / RFU SYPL1 (11715823_x_at) / Fold change /veh SYPL1 (11715823_x_at) / RFU IGFBP7 (11715501_s_at) / Fold change /veh IGFBP7 (11715501_s_at) / RFU REEP3 (11722064_at) / Fold change /veh REEP3 (11722064_at) / RFU IGLL1 (11728026_x_at) / Fold change /veh IGLL1 (11728026_x_at): dose or concentration left out as unconfirmed
# Conditions: ProbeSet 11732281_s_at; LIST D
smiles,measurement,value
Nc1ccc(-c2cccs2)cc1NC(=O)c1ccc2c(c1)cc(C1CC1)n2CCN1CCOCC1 [ACY-1035],"Fold change vs veh, FOXP1",0.88
